Test results: US9029414B2, “Triterpenoid compounds and methods of use thereof” (Biotechnology Research Corporation, priority 2008, dated 2015)

How the values were obtained:
[1] = tested on: scopolamine-induced memory impaired mice; assay: Morris water maze, scopolamine-induced memory impairment; type: in vivo; conditions: 10 mg/kg orally, scopolamine 4 mg/kg i.p.; day 4 and day 5
Procedure: 6-8 week old outbred male I.C.R. mice, weighing 25-35 g were housed two per cage in a climatically controlled animal room (23-25° C.) under 12 hours light/dark cycling. The animals were allowed access to water and food ad lib. The mice used for the experiment were brought to particular laboratory conditions for two days. All the experiments were conducted between 14:00 and 18:00. […] The experimental mice were randomly assigned into 4 or 6 groups, each consisting of 12 mice with similar mean body weights and age. The test compound was dissolved in physiological saline before the experiments each day. […]
Each mouse was subjected to 4 trials per day for 5 consecutive days. […] The probe trial (without platform) was assessed within a 60 s period on the fifth day of behavioral testing (one experiment), and the time spent in the southeast quadrant where the escape platform had been set during training was recorded computationally and presented as percentage of spatial bias.
The two-way ANOVA with repeated measures was used to analyze latency values, and calculated as the mean latency periods for each mouse. (Data are expressed as means±S.E.M. by using 2-way ANOVA). One-way ANOVA followed by Duncan's multiple-range test (data expressed as mean±S.E.M. *P<0.05 and **P<0.01 versus scopolamine) was used to analyze group differences of the data collected during probe trials. […]

[2] = tested on: hippocampal neurons; assay: Hippocampal neuron survival assay against glutamate excitotoxicity (LDH); type: cell-based, Sprague-Dawley rats; conditions: 30 μM 24 hrs, glutamate 10-200 μM 20 min
Procedure: Hippocampal neurons/cortical neurons were prepared from embryonic day 18 Sprague-Dawley rats. After the cortices had been removed from the brain, isolated cells were plated onto Poly d-Lysine (PDL) (P0899, Sigma)-coated 48 well plates (150687, NUNC) at a density of 2×10^5 cell per well using Neurobasal Medium (NB) (21103-049, Gibco) with B27 supplement (17504-044, Gibco), penicillin/streptomycin (15140, Gibco) and 1 mM L-glutamine (25030, Gibco). The cell culture was incubated at 37° C. in a humidified atmosphere of 5% CO2 in air. Medium was changed to growth medium (Neurobasal Medium with penicillin/streptomycin and B27 supplement) after 3 hours. Half medium was changed with growth medium every 2-3 days to maintain the cells until day 10 in vitro (DIV 10). Serial dilutions of samples were prepared in growth medium and DMSO was used as vehicle control. For pre-treating assay, half of the medium was removed from wells, and equal amount of diluted samples were replaced. Cells were then incubated for 2 hours at 37° C. in a humidified atmosphere of 5% CO2 in air. […] Afterwards, cells were incubated in growth medium for 18-24 hours and detected with Cytotoxicity Detection Kit (1644793, Roche).
Hippocampal neurons were treated with DA021 and subsequently subjected to varying concentrations of glutamate. […] LDH release into the medium was then measured.

[3] = tested on: kainate receptor; assay: Radioligand competition binding assay, kainate; conditions: 10 μM in duplicate
Procedure: DA001 was evaluated against 109 receptor binding assays and 17 enzyme assays, comprising of selective, central and peripheral therapeutically-relevant targets. Radioligand competition assays were conducted whereby DA001 was tested at one concentration (10 μM) in duplicate. […] It could compete with the radioligand [^125I-NDP-alpha-melanocyte-stimulating hormone (α-MSH)] binding for MC1 and MC4 but not MC3 and MC5 nor the related family, the melanin concentrating hormone receptors (MCH1 and MCH2).

| Compound | escape latency [1] | protection from glutamate-induced excitotoxicity (LDH release) [2] | % inhibition of control specific binding [3] [%] |
| --- | --- | --- | --- |
| C=C(C)[C@@H]1CC[C@]2(/C=N/O)CC[C@]3(C)C(CCC4[C@@]5(C)CCC(=O)[C@@](C)(CO)[C@@H]5CC[C@]43C)C12 (stereo partly drawn) [DA021] | significantly reversed the increased escape latency | protects neurons against differing concentrations of glutamate |  |
| C=C(C)[C@@H]1CC[C@]2(C(=O)O)CC[C@]3(C)C(CC[C@@H]4[C@@]5(C)CC[C@H](O[C@@H]6OC[C@H](O)[C@H](O)[C@H]6O[C@@H]6O[C@@H](C)[C@H](O)[C@@H](O)[C@H]6O)[C@@](C)(CO)[C@@H]5CC[C@]43C)[C@@H]12 (stereo partly drawn) [DA001, 3-O-[α-L-rhamnopyranosyl-(1→2)-α-L-arabinopyranosyl]-3,23-dihydroxy-20(29)-lupen-28-oic acid] |  |  | 35 |
